Laboratory results from patent publication US5340925A, “Normal human growth regulatory receptor for TGF-β” (Oncogen, priority 1992, dated 1994).
Where two headings read alike, the source gives them in different places. Values belong to the molecule of their own block, whether it stands above or below them.

What was measured:
HEPM cells [1] = assay: Co-stimulation with EGF assay (radionuclide incorporation into DNA); type: cell-based, human
Protocol: Quiescent HEPM cells were stimulated to proliferate by the addition of fetal bovine serum (15 μ) and test samples of TGF-β2 (50 μl) and/or EGF (50 μl), resulting in a total assay volume of 165 μl. The amount of cell growth was measured by the amount of radionuclide incorporated into the DNA of actively growing cells.
The response of HEPM cells to TGF-β treatment in the presence of EGF was determined by radiolabeling the DNA of dividing cells as described in Materials and Methods. A suboptimal dose of TGF-β2 was analyzed for growth stimulatory activity in the presence of EGF. […] HEPM cells treated with both EGF and TGF-β2 at the same doses gave a 511% stimulation, a potentiated response of 340% over that expected from the sum of the two individual responses.

HEPM cells [2] = assay: Growth stimulation assay: incorporation of 5-[125I]iodo-2'-deoxyuridine into DNA of quiescent HEPM cells; type: cell-based, human; settings: 66 h + 6 h radionuclide label
Protocol: FIGS. 1(A) and 1(B) Bioactivity of TGF-β on HEPM cells: incorporation of radionuclide into DNA. Results are presented as percent stimulation vs the picomolar (pM) concentration of TGF-β. Percent stimulation was calculated as follows: treated (cpm)-untreated (cpm)/untreated (cpm) x 100. Panel A: TGF-β1, treatment. Panel B: TGF-β2 treatment.
HEPM cells (5,000 cells/50 μl ) were subcultured in 96-well tissue culture plates (Falcon 30072) in growth medium comprising minimal essential medium (Gibco, Grand Island, N.Y.) supplemented with 10% heat-inactivated fetal bovine serum, 600 μg/ml L-glutamine, 500 μg/ml penicillin and 500 μg/ml streptomycin for a 24-hour period at 37° C. in a humidified 5% CO2 /95% air atosphere. A nondividing, quiescent state of growth was achieved by subsequent incubation for 48 hours in growth medium supplemented with 0.5% fetal bovine serum. Quiescent cells were then stimulated to proliferate by the addition of fetal bovine serum (10 μl ) and test samples of TGF-β1, or TGF-β2 (50 μl). The cells were incubated an additional 66 hours at 37° C. […] The amount of cell growth was measured by the amount of radionuclide incorporated into the DNA of actively growing cells.

[3] = tested on: HEPM cell-surface receptors for TGF-β; assay: Radioreceptor assay: [125I]-iodo-TGF-β1 in competition with unlabeled TGF-β1, Scatchard analysis; type: binding, human; settings: comparison of growth stimulation and receptor binding, FIG. 6
Protocol: (§1) HEPM cells were grown to confluence (1×10^5 cells/well) in 24-well Costar tissue culture plates. Prior to the binding assay, cells were pre-incubated in serum-free growth medium at 37° C. for 4 hours to allow for the dissociation of TGF-β from occupied cells surface receptors. The resulting monolayers were washed 2 times in binding buffer (Dulbecco's MEM+0.1% BSA+25 mM HEPES). 250 μl of binding buffer containing 0.5 μg/ml [^125 I]-iodoTGF-β1, (specific activity of 100 μCi/μg) together with increasing amounts of unlabeled TGF-β1 were added to duplicate wells. Steady state binding was carried out at 4° C. for 3 hours. After incubation cells were washed 3 times with cold binding buffer and solubilized in 200 μl of Triton solution (20 mM HEPES, 1% Triton X-100, 10% glycerol, 0.01% BSA, pH 7.4). Radioactivity was determined using a gamma spectrometer. Non-specific binding was determined in the presence of a 1,000-fold molar excess unlabeled TGF-β1.
(§2) The radioreceptor assay described in Materials and Methods was used to characterize the affinity and number of cell-surface receptors for TGF-β on HEPM cells. Specific binding of [^125 I]-iodo-TGF-βin these assays was 20% of the total radioligand present. […] Half-maximal displacement of radioligand occurred at 100 pM (2.6 ng/ml) unlabeled TGF-β1. Competitive binding data were plotted according to the method of Scatchard (Scatchard, et al., 1947, Ann. NY Acad Sci 51:660-672) and the results are presented in FIG. 5. A distinctly curvilinear isotherm was obtained indicating the presence of at least two classes of binding sites on HEPM cells. […] Quantitative analysis determined that HEPM cells contain a total of 287,000 TGF-β receptors per cell (55,400 high affinity and 231,600 low affinity sites).

[4] = biological target: T1, HEPM cell-surface receptors for TGF-β (Homo sapiens, UniProt Q03167); assay: as above; type: binding; settings: untreated HEPM cells, Scatchard two-site model
T1 construct: endogenous in cells; host or cells: HEPM (human embryonic palatal mesenchyme) cells, intact monolayers
T1 sequence (Q03167 21-851): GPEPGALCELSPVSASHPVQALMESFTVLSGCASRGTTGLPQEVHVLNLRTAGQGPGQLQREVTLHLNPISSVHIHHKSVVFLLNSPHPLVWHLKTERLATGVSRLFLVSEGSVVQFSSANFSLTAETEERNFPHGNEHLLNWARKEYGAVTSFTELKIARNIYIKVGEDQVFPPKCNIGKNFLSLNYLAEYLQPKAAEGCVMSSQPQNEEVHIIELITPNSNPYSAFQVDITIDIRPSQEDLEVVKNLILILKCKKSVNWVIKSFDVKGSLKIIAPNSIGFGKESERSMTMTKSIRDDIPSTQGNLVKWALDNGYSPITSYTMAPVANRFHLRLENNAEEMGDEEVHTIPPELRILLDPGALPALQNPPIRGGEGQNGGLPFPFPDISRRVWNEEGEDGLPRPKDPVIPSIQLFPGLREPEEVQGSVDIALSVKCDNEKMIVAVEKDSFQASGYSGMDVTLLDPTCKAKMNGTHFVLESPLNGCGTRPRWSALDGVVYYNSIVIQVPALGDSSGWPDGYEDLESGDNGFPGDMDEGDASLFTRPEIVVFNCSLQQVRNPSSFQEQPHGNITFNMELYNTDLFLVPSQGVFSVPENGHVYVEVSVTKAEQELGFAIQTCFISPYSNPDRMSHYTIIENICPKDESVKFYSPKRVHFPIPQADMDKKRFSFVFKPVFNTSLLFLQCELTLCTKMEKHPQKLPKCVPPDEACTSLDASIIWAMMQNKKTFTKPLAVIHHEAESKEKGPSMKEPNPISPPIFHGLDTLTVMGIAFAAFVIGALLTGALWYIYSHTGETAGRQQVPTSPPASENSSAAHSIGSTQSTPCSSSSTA
Protocol: as §1, §2

TGF-β = biological target: T2, TGF-β (Homo sapiens, UniProt P01137); assay: Affinity labeling of purified soluble receptor with [125I]-iodo-TGF-β, DSS cross-linking, SDS-PAGE; type: binding; settings: [125I]-iodo-TGF-β with or without 1,000 ng/ml unlabeled TGF-β
T2 construct: endogenous in cells; host or cells: HEPM cells
T2 sequence (P01137 279-390): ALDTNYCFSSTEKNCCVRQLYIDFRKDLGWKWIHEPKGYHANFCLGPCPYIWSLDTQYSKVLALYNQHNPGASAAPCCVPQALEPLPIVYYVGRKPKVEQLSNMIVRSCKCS
Protocol: FIG. 10 Ability of purified TGF-β receptor to bind TGF-β. Affinity purified receptor preparations were crosslinked to bound [^125 I]-iodo-TGF-β with DSS and analyzed on SDS-PAGE. Lanes marked (-) contained only [^125 I]-iodo-TGF-β; lanes marked (+) contained [^125 I]-iodo-TGF-β in the presence of 1,000 ng/ml unlabeled TGF-β. The 240 Kd band is specifically labeled with radioligand and has the same mobility on SDS-PAGE as the receptor-TGF-β complex from cell surface membranes (see FIG. 7).
Solubilized receptor samples (50 μl) were diluted with three volumes of binding buffer containing 0.5% v/v Triton X-100 and 50 ng/ml [^125 I]-iodo-TGF-β. The samples were incubated at 4° C. for 3 hours in the presence or absence of 1,000 ng/ml unlabeled TGF-β. Four microliters (4 μl) of 10 mM DSS in DMSO were then added. After 15 minutes the unreacted DSS was quenched by adding 20 μl of 100 mM Tris/HCl pH 7.0.
Affinity-labeled samples were incubated at 4° C. for 2 hours with 15 μl of packed WGA-sepharose beads (wheat germ aglutinin-sepharose, Sigma) with end-over-end mixing. The beads were sedimented by centrifugation at 12,000 xg for 1 minute and washed three times with a buffer solution containing 0.5% v/v Triton X-100, 10 mM Tris/HCl, mM EDTA. The washed, packed beads were heated for 5 minutes at 95° C. in the presence of 20 μl of electrophoresis sample buffer containing 5% 2-mercaptoethanol. […]

Molecule: EGF: epidermal growth factor [reference compound]
percent stimulation (HEPM cells [1]; 13 ng/ml EGF alone): 21%

Molecule: TGF-β2: polypeptide of molecular weight 26,000 composed of two identical 13,000 dalton subunits which are disulfide linked
ED50 in stimulating the proliferation of HEPM cells (half-maximal growth stimulation) (HEPM cells [2]): 0.0023 nM
percent stimulation (HEPM cells [1]; 0.3 ng/ml TGF-β2 alone (suboptimal dose)): 150%

Kd ([4]; read-out: kd, high-affinity (low capacity) site): 0.058 nM
Kd ([4]; read-out: kd, low-affinity (high capacity) site): 0.898 nM
Molecule: TGF-β: Transforming growth factor-Beta, type not named at the place; the underlying radioreceptor and FIG. 6 data were obtained with TGF-β1
concentration to occupy all TGF-β receptor sites relative to concentration for maximal growth stimulatory response [3]: about 20 times

ability of purified receptor to bind TGF-β (TGF-β): specifically bind TGF-β
B1: affinity purified receptor: type III TGF-β receptor affinity purified from HEPM cells, about 200-206 kd, N-terminus Lys-Tyr-Tyr-Asp-Lys-Asp-Tyr (protein, UniProt Q03167 21-851, looked up)
Transforming growth factor …: T1 sequence (Q03167 21-851)
